Reference: publication PMC5160925 (Frontiers in Microbiology, 2016)

Legend:
Type in all cases: biochemical
[1] = molecular target: T1, ArgD7002 (N-acetylornithine aminotransferase) (Picosynechococcus sp. PCC 7002, UniProt B1XNF8); assay: HPLC of PITC derivatives, glutamate formation; conditions: 1 mM GABA, 1 mM 2-oxoglutarate, 50 mM K-phosphate, pH 9, room temperature, 1 h
T1 construct: gene argD; full ORF, N-terminal His10 tag kept, E. coli DH5alpha, Ni-NTA purified
T1 sequence (B1XNF8 1-418): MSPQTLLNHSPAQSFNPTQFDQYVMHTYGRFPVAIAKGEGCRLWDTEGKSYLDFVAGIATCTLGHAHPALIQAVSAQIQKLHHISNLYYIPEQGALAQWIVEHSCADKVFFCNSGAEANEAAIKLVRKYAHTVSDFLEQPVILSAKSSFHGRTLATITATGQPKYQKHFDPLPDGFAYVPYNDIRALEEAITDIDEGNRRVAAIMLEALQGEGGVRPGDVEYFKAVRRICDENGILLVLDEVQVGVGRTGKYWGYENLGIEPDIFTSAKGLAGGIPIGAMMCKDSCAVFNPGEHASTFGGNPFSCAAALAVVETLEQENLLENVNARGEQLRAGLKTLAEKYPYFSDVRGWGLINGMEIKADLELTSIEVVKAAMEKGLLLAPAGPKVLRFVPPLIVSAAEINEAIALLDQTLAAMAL

[2] = molecular target: T2, ArgD6803 (N-acetylornithine aminotransferase) (Synechocystis sp. PCC 6803, UniProt P73133); assay: HPLC of PITC derivatives, glutamate formation; conditions: 1 mM 2-oxoglutarate, 50 mM K-phosphate, pH 9, room temperature, 1 h
T2 construct: gene argD; full ORF, N-terminal His10 tag kept, E. coli DH5alpha, Ni-NTA purified

[3] = molecular target: T3, GadA6803 (glutamate decarboxylase) (Synechocystis sp. PCC 6803, UniProt P73043); assay: HPLC of PITC derivatives, GABA formation; conditions: 1 mM glutamate, 50 mM K-phosphate, pH 4.5, room temperature, 1 h
T3 construct: gene gad; full ORF, N-terminal His10 tag kept, E. coli DH5alpha, Ni-NTA purified

## NCCCC(=O)O [GABA]
[1]
  HPLC of PITC derivatives, glutamate formation: argD6803 or argD7002 was incubated with GABA and 2-oxoglutarate, glutamate was produced
[2]; 1 mM GABA
  HPLC of PITC derivatives, glutamate formation: argD6803 or argD7002 was incubated with GABA and 2-oxoglutarate, glutamate was produced

## NCCC[C@H](N)C(=O)O [L-ornithine]
[2]; 1 mM L-ornithine
  HPLC of PITC derivatives, glutamate formation: argD6803 or argD7002 was incubated with L-ornithine and 2-OG, glutamate was produced

## N[C@@H](CCC(=O)O)C(=O)O [glutamate]
[3]
  HPLC of PITC derivatives, GABA formation: this protein catalyzes the conversion of glutamate to GABA
